These are literature values, as cited in patent publication US8613910B2, “Flavonoids as synergists for enhancing the action of self-tanning substances” (Merck Patent GmbH, priority 2005, dated 2013).

The conditions of this series: amongst the hydroxyflavone structures investigated, entire pH range.

Consider `O=c1c(O)c(-c2ccc(O)c(O)c2)oc2cc(O)cc(O)c12` [quercetin, 3,3′,4′,5,7-pentahydroxyflavone], for which the antioxidant action result was “greatest activity”.
